For this data set, the system named is CCRIS mutagenicity, Ames/micronucleus/aberration tests. Description: CCRIS mutagenicity studies.
[1] abbreviates: Test System: AMES SALMONELLA TYPHIMURIUM, Strain/Indicator: TA97, Metabolic Activation: NONE, Method: PREINCUBATION
Where [2] appears, read: Test System: AMES SALMONELLA TYPHIMURIUM, Strain/Indicator: TA100, Metabolic Activation: NONE, Method: PREINCUBATION

Our source for the mutagenic call values is PubChem BioAssay AID1259407 (Chemical Carcinogenesis Research Information System (CCRIS), 2018).

Calls of active or inactive are those of the source. The rule behind the calls is not given here.

As for `Clc1cccc(C(Cl)(Cl)Cl)n1`, the mutagenic call by setting is: (Test System: AMES SALMONELLA TYPHIMURIUM, Strain/Indicator: TA97, Metabolic Activation: HAMSTER, LIVER, S-9, AROCLOR 1254 (10%), Method: PREINCUBATION) “inactive; negative”; under setting [1], “inactive; negative”; (Test System: AMES SALMONELLA TYPHIMURIUM, Strain/Indicator: TA97, Metabolic Activation: RAT, LIVER, S-9, AROCLOR 1254 (10%), Method: PREINCUBATION) “inactive; negative”; (Test System: AMES SALMONELLA TYPHIMURIUM, Strain/Indicator: TA98, Metabolic Activation: HAMSTER, LIVER, S-9, AROCLOR 1254 (5%), Method: PREINCUBATION) “inactive; negative”; (Test System: AMES SALMONELLA TYPHIMURIUM, Strain/Indicator: TA98, Metabolic Activation: HAMSTER, LIVER, S-9, AROCLOR 1254 (10%), Method: PREINCUBATION) “active; positive”; (Test System: AMES SALMONELLA TYPHIMURIUM, Strain/Indicator: TA98, Metabolic Activation: HAMSTER, LIVER, S-9, AROCLOR 1254 (30%), Method: PREINCUBATION) “active; positive”. Further, the mutagenic call runs as follows: (Test System: AMES SALMONELLA TYPHIMURIUM, Strain/Indicator: TA98, Metabolic Activation: NONE, Method: PREINCUBATION) “inactive; negative”; (Test System: AMES SALMONELLA TYPHIMURIUM, Strain/Indicator: TA98, Metabolic Activation: RAT, LIVER, S-9, AROCLOR 1254 (5%), Method: PREINCUBATION) “inactive; negative”; (Test System: AMES SALMONELLA TYPHIMURIUM, Strain/Indicator: TA98, Metabolic Activation: RAT, LIVER, S-9, AROCLOR 1254 (10%), Method: PREINCUBATION) “active; positive”; (Test System: AMES SALMONELLA TYPHIMURIUM, Strain/Indicator: TA98, Metabolic Activation: RAT, LIVER, S-9, AROCLOR 1254 (30%), Method: PREINCUBATION) “active; positive”; (Test System: AMES SALMONELLA TYPHIMURIUM, Strain/Indicator: TA100, Metabolic Activation: HAMSTER, LIVER, S-9, AROCLOR 1254 (5 OR 10%), Method: PREINCUBATION) “inactive; negative”; (Test System: AMES SALMONELLA TYPHIMURIUM, Strain/Indicator: TA100, Metabolic Activation: HAMSTER, LIVER, S-9, AROCLOR 1254 (30%), Method: PREINCUBATION) “active; positive”. The mutagenic call is “inactive; negative” under setting [2]; “inactive; negative” (Test System: AMES SALMONELLA TYPHIMURIUM, Strain/Indicator: TA100, Metabolic Activation: RAT, LIVER, S-9, AROCLOR 1254 (5 OR 10%), Method: PREINCUBATION); “inactive; negative” (Test System: AMES SALMONELLA TYPHIMURIUM, Strain/Indicator: TA100, Metabolic Activation: RAT, LIVER, S-9, AROCLOR 1254 (30%), Method: PREINCUBATION); “inactive; negative” (Test System: AMES SALMONELLA TYPHIMURIUM, Strain/Indicator: TA1535, Metabolic Activation: HAMSTER, LIVER, S-9, AROCLOR 1254 (10%), Method: PREINCUBATION); “inactive; negative” (Test System: AMES SALMONELLA TYPHIMURIUM, Strain/Indicator: TA1535, Metabolic Activation: NONE, Method: PREINCUBATION); “inactive; negative” (Test System: AMES SALMONELLA TYPHIMURIUM, Strain/Indicator: TA1535, Metabolic Activation: RAT, LIVER, S-9, AROCLOR 1254 (10%), Method: PREINCUBATION).

With `CCCCOS(=O)(=O)OCCCC`, the mutagenic call (End Point: In vitro micronucleus, Test System: Chinese Hamster Ovary (CHO-WBL) cells, Metabolic Activation: None) was “active; positive (p<0.01)”.

For `CCN(CC)c1ccc(N=Nc2ccc(N=Nc3c(S(=O)(=O)O)cc4ccc(N)cc4c3O)c(OCCO)c2)cc1`, the mutagenic call reads like this: (Test System: AMES SALMONELLA TYPHIMURIUM, Strain/Indicator: TA98, Metabolic Activation: NONE, Method: STANDARD PLATE) “inactive; negative”; (Test System: AMES SALMONELLA TYPHIMURIUM, Strain/Indicator: TA98, Metabolic Activation: RAT, LIVER, S-9, AROCLOR 1254, Method: STANDARD PLATE) “active; positive”; (Test System: AMES SALMONELLA TYPHIMURIUM, Strain/Indicator: TA100, Metabolic Activation: NONE, Method: STANDARD PLATE) “inactive; negative”; (Test System: AMES SALMONELLA TYPHIMURIUM, Strain/Indicator: TA100, Metabolic Activation: RAT, LIVER, S-9, AROCLOR 1254, Method: STANDARD PLATE) “inactive; negative”; (Test System: AMES SALMONELLA TYPHIMURIUM, Strain/Indicator: TA1538, Metabolic Activation: NONE, Method: STANDARD PLATE) “inactive; negative”; (Test System: AMES SALMONELLA TYPHIMURIUM, Strain/Indicator: TA1538, Metabolic Activation: RAT, LIVER, S-9, AROCLOR 1254, Method: STANDARD PLATE) “active; positive”.

For `CC12OOC1(C)c1c(ccc3ccccc13)O2` (stereo not given), under setting [2], the mutagenic call is “inactive; negative”.

As to `O=C(O)CCC(=O)O`, the mutagenic call was “inactive; negative” under setting [1]; “inactive; negative” (Test System: AMES SALMONELLA TYPHIMURIUM, Strain/Indicator: TA97, Metabolic Activation: RAT, LIVER, S-9, AROCLOR 1254, Method: PREINCUBATION); “inactive; negative” (Test System: AMES SALMONELLA TYPHIMURIUM, Strain/Indicator: TA102, Metabolic Activation: NONE, Method: PREINCUBATION); “inactive; negative” (Test System: AMES SALMONELLA TYPHIMURIUM, Strain/Indicator: TA102, Metabolic Activation: RAT, LIVER, S-9, AROCLOR 1254, Method: PREINCUBATION).
